Experimental data taken from patent US12281122B1, “PI3K inhibitors” (Cogent Biosciences, Inc., priority 2023, dated 2025).
pIC50: −log10 of the molar value.

Key:
[1] = tested on: T47D (PI3Kα-H1047R) cell line; experiment: HTRF phospho-AKT(S473) cell assay in T47D cells; assay type: cell-based, human; conditions: Homo sapiens; HTRF phospho-AKT(S473), T47D (PI3Kα-H1047R) cells, 2 hours compound incubation
Outline: (§1)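 T47D: RPMI + 10% FBS + 0.2 units/mL insulin, top 5 μM. SKBR3: McCoy's 5A + 10% FBS, top 10 μM, 70 ng/ml PDGF-BB last 15 min. Both: 12-pt 1:3, 2 h, 37° C, max 0.5% DMSO; HTRF pAKT(S473); IC50.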

[2] = tested on: SKBR3 (PI3Kα-Wild Type) cell line; experiment: HTRF phospho-AKT(S473) cell assay in SKBR3 cells; assay type: cell-based, human; conditions: Homo sapiens, SK-BR-3; HTRF phospho-AKT(S473), SKBR3 (PI3Kα-Wild Type) cells, 2 hours compound incubation, PDGF-BB stimulated
Outline: as §1

| SMILES | pIC50 [1] | pIC50 [2] |
| --- | --- | --- |
| Cc1ccc(N2C[C@@H]3C[C@H]2CN3c2nc3c([C@@H](C)Nc4ccc(Cl)nc4C(=O)NS(C)(=O)=O)cc(C)cc3c(=O)n2C)nc1 [Compound 663, 6-chloro-3-(((R)-1-(3,6-dimethyl-2-((1S,4S)-5-(5-methylpyridin-2-yl)-2,5-diazabicyclo [2.2.1]heptan-2-yl)-4-oxo-3,4-dihydroquinazolin-8-yl)ethyl)amino)-N-(methylsulfonyl) picolinamide] | 6.00 to 6.30 | < 5.30 |
| Cc1cc([C@@H](C)Nc2ccc(Cl)nc2C(=O)NS(C)(=O)=O)c2nc(N3C[C@H]4C[C@@H]3CN4c3cnc(C)c(F)c3)n(C)c(=O)c2c1 [Compound 664, 6-chloro-3-(((R)-1-(2-((1R,4R)-5-(5-fluoro-6-methylpyridin-3-yl)-2,5-diazabicyclo [2.2.1]heptan-2-yl)-3,6-dimethyl-4-oxo-3,4-dihydroquinazolin-8-yl)ethyl)amino)-N-(methylsulfonyl) picolinamide] | 6.00 to 6.30 | ≤ 5.30 |
| Cc1cc([C@@H](C)Nc2ccc(Cl)nc2C(=O)NS(C)(=O)=O)c2nc(N3C[C@@H]4C[C@H]3CN4c3ncc(Cl)cn3)n(C)c(=O)c2c1 [Compound 667, 6-chloro-3-(((R)-1-(2-((1S,4S)-5-(5-chloropyrimidin-2-yl)-2,5-diazabicyclo [2.2.1]heptan-2-yl)-3,6-dimethyl-4-oxo-3,4-dihydroquinazolin-8-yl)ethyl)amino)-N-(methylsulfonyl) picolinamide] | 6.00 to 6.30 | ≤ 5.30 |
| Cc1cc([C@@H](C)Nc2ccc(Cl)nc2C(=O)NS(C)(=O)=O)c2nc(N3C[C@@H]4C[C@H]3CN4c3ncc(F)cn3)n(C)c(=O)c2c1 [Compound 669, 6-chloro-3-(((R)-1-(2-((1S,4S)-5-(5-fluoropyrimidin-2-yl)-2,5-diazabicyclo [2.2.1]heptan-2-yl)-3,6-dimethyl-4-oxo-3,4-dihydroquinazolin-8-yl)ethyl)amino)-N-(methylsulfonyl) picolinamide] | 6.30 to 6.60 | ≤ 5.30 |
| Cc1cc([C@@H](C)Nc2ccc(Cl)nc2C(=O)NS(C)(=O)=O)c2nc(N3CCC4(CCc5cn(C)nc54)CC3)n(C)c(=O)c2c1 [Compound 673, (R)-6-chloro-3-((1-(3,6-dimethyl-2-(2-methyl-4,5-dihydro-2H-spiro [cyclopenta[c]pyrazole-6,4′-piperidin]-1′-yl)-4-oxo-3,4-dihydroquinazolin-8-yl)ethyl)amino)-N-(methylsulfonyl) picolinamide] | 6.30 to 6.60 | ≤ 5.30 |
| Cc1cc([C@@H](C)Nc2ccc(Cl)nc2C(=O)NS(C)(=O)=O)c2nc(N3Cc4cccc(-c5cncn5C)c4C3)n(C)c(=O)c2c1 [Compound 674, (R)-6-chloro-3-((1-(3,6-dimethyl-2-(4-(1-methyl-1H-imidazol-5-yl)isoindolin-2-yl)-4-oxo-3,4-dihydroquinazolin-8-yl)ethyl)amino)-N-(methylsulfonyl) picolinamide] | 6.30 to 6.60 | ≤ 5.30 |
| Cc1cc([C@@H](C)Nc2ccc(Cl)nc2C(=O)NS(C)(=O)=O)c2nc(N3CCC(c4nn(C)c5ccccc45)CC3)n(C)c(=O)c2c1 [Compound 675, (R)-6-chloro-3-((1-(3,6-dimethyl-2-(4-(1-methyl-1H-indazol-3-yl)piperidin-1-yl)-4-oxo-3,4-dihydroquinazolin-8-yl)ethyl)amino)-N-(methylsulfonyl) picolinamide] | 6.30 to 6.60 | ≤ 5.30 |
| Cc1cc([C@@H](C)Nc2ccc(Cl)nc2C(=O)NS(C)(=O)=O)c2nc(N3CCC(n4ccccc4=O)CC3)n(C)c(=O)c2c1 [Compound 677, (R)-6-chloro-3-((1-(3,6-dimethyl-4-oxo-2-(4-(2-oxopyridin-1(2H)-yl)piperidin-1-yl)-3,4-dihydroquinazolin-8-yl)ethyl)amino)-N-(methylsulfonyl) picolinamide] | 6.30 to 6.60 | ≤ 5.30 |
| Cc1cc([C@@H](C)Nc2ccc(Cl)nc2C(=O)NS(C)(=O)=O)c2nc(N3CCC(c4cccc5c4cnn5C)CC3)n(C)c(=O)c2c1 [Compound 678, (R)-6-chloro-3-((1-(3,6-dimethyl-2-(4-(1-methyl-1H-indazol-4-yl)piperidin-1-yl)-4-oxo-3,4-dihydroquinazolin-8-yl)ethyl)amino)-N-(methylsulfonyl) picolinamide] | 6.30 to 6.60 | ≤ 5.30 |
| Cc1cc([C@@H](C)Nc2ccc(Cl)nc2C(=O)NS(C)(=O)=O)c2nc(N3CCC(c4ccc(F)cn4)C3)n(C)c(=O)c2c1 (stereo partly drawn) [Compound 679, 6-chloro-3-(((1R)-1-(2-(3-(5-fluoropyridin-2-yl)pyrrolidin-1-yl)-3,6-dimethyl-4-oxo-3,4-dihydroquinazolin-8-yl)ethyl)amino)-N-(methylsulfonyl) picolinamide] | 6.30 to 6.60 | 5.30 to 6.00 |
| Cc1cc([C@@H](C)Nc2ccc(Cl)nc2C(=O)NS(C)(=O)=O)c2nc(N3CCN4C[C@H](n5cc(C)cn5)C[C@H]4C3)n(C)c(=O)c2c1 [Compound 680, 6-chloro-3-(((R)-1-(3,6-dimethyl-2-((7R,8aS)-7-(4-methyl-1H-pyrazol-1-yl)hexahydropyrrolo[1,2-a]pyrazin-2(1H)-yl)-4-oxo-3,4-dihydroquinazolin-8-yl)ethyl)amino)-N-(methylsulfonyl) picolinamide] | 6.30 to 6.60 | ≤ 5.30 |
| Cc1cc([C@@H](C)Nc2ccc(Cl)nc2C(=O)NS(C)(=O)=O)c2nc(N3CCC(n4cc(C(F)(F)F)cn4)CC3)n(C)c(=O)c2c1 [Compound 681, (R)-6-chloro-3-((1-(3,6-dimethyl-4-oxo-2-(4-(4-(trifluoromethyl)-1H-pyrazol-1-yl)piperidin-1-yl)-3,4-dihydroquinazolin-8-yl)ethyl)amino)-N-(methylsulfonyl) picolinamide] | 6.30 to 6.60 | ≤ 5.30 |
| Cc1cc([C@@H](C)Nc2ccc(Cl)nc2C(=O)NS(C)(=O)=O)c2nc(N3CCC4(CCc5c[nH]nc54)CC3)n(C)c(=O)c2c1 [Compound 682, (R)-6-chloro-3-((1-(2-(4,5-dihydro-2H-spiro [cyclopenta[c]pyrazole-6,4′-piperidin]-1′-yl)-3,6-dimethyl-4-oxo-3,4-dihydroquinazolin-8-yl)ethyl)amino)-N-(methylsulfonyl) picolinamide] | 6.30 to 6.60 | ≤ 5.30 |

Results, then the molecule that gave them:

| pIC50 [1] | pIC50 [2] | SMILES |
| --- | --- | --- |
| > 6.60 | 5.30 to 6.00 | Cc1cc([C@@H](C)Nc2ccc(Cl)nc2C(=O)NS(C)(=O)=O)c2nc(N3C[C@@H]4[C@H](C3)[C@H]4c3nnc(C)o3)n(C)c(=O)c2c1 [Compound 654, 6-chloro-3-(((R)-1-(3,6-dimethyl-2-((1R,5S,6R)-6-(5-methyl-1,3,4-oxadiazol-2-yl)-3-azabicyclo[3.1.0]hexan-3-yl)-4-oxo-3,4-dihydroquinazolin-8-yl)ethyl)amino)-N-(methylsulfonyl) picolinamide] |
| 6.30 to 6.60 | ≤ 5.30 | [2H]C([2H])([2H])n1nc([C@H]2[C@@H]3CN(c4nc5c([C@@H](C)Nc6ccc(Cl)nc6C(=O)NS(C)(=O)=O)cc(C)cc5c(=O)n4C)C[C@@H]32)c(Cl)c1C [Compound 661, 6-chloro-3-(((R)-1-(2-((1R,5S,6R)-6-(4-chloro-5-methyl-1-(methyl-d3)-1H-pyrazol-3-yl)-3-azabicyclo[3.1.0]hexan-3-yl)-3,6-dimethyl-4-oxo-3,4-dihydroquinazolin-8-yl)ethyl)amino)-N-(methylsulfonyl) picolinamide] |
| 6.30 to 6.60 | ≤ 5.30 | Cc1cc([C@@H](C)Nc2ccc(Cl)nc2C(=O)NS(C)(=O)=O)c2nc(N3CCN(c4ncccc4F)CC3)n(C)c(=O)c2c1 [Compound 662, (R)-6-chloro-3-((1-(2-(4-(3-fluoropyridin-2-yl)piperazin-1-yl)-3,6-dimethyl-4-oxo-3,4-dihydroquinazolin-8-yl)ethyl)amino)-N-(methylsulfonyl) picolinamide] |
| > 6.60 | 5.30 to 6.00 | Cc1cc([C@@H](C)Nc2ccc(Cl)nc2C(=O)NS(C)(=O)=O)c2nc(N3C[C@@H]4[C@H](C3)[C@H]4c3cc(C)on3)n(C)c(=O)c2c1 [Compound 665, 6-chloro-3-(((R)-1-(3,6-dimethyl-2-((1R,5S,6R)-6-(5-methylisoxazol-3-yl)-3-azabicyclo[3.1.0]hexan-3-yl)-4-oxo-3,4-dihydroquinazolin-8-yl)ethyl)amino)-N-(methylsulfonyl) picolinamide] |
| 6.30 to 6.60 | ≤ 5.30 | Cc1cc([C@@H](C)Nc2ccc(Cl)nc2C(=O)NS(C)(=O)=O)c2nc(N3C[C@H]4C[C@@H]3CN4c3ncc(Cl)cn3)n(C)c(=O)c2c1 [Compound 666, 6-chloro-3-(((R)-1-(2-((1R,4R)-5-(5-chloropyrimidin-2-yl)-2,5-diazabicyclo [2.2.1]heptan-2-yl)-3,6-dimethyl-4-oxo-3,4-dihydroquinazolin-8-yl)ethyl)amino)-N-(methylsulfonyl) picolinamide] |
| 6.30 to 6.60 | ≤ 5.30 | Cc1cc([C@@H](C)Nc2ccc(Cl)nc2C(=O)NS(C)(=O)=O)c2nc(N3C[C@H]4C[C@@H]3CN4c3ncc(F)cn3)n(C)c(=O)c2c1 [Compound 668, 6-chloro-3-(((R)-1-(2-((1R,4R)-5-(5-fluoropyrimidin-2-yl)-2,5-diazabicyclo [2.2.1]heptan-2-yl)-3,6-dimethyl-4-oxo-3,4-dihydroquinazolin-8-yl)ethyl)amino)-N-(methylsulfonyl) picolinamide] |
| > 6.60 | 5.30 to 6.00 | Cc1cc([C@@H](C)Nc2ccc(Cl)nc2C(=O)NS(C)(=O)=O)c2nc(N3CC[C@@H](Oc4cnc(C)cn4)C3)n(C)c(=O)c2c1 [Compound 672, 6-chloro-3-(((R)-1-(3,6-dimethyl-2-((R)-3-((5-methylpyrazin-2-yl)oxy)pyrrolidin-1-yl)-4-oxo-3,4-dihydroquinazolin-8-yl)ethyl)amino)-N-(methylsulfonyl) picolinamide] |
